In publication PMC3303165 (Dalton Transactions (Cambridge, England : 2003), 2012):

Legend:
[1] = test system: Plasmodium falciparum Dd2 (chloroquine resistant strain); assay type: cell-based; conditions: DD2, read-out: Dd2: IC50
[2] = test system: Plasmodium falciparum D10 (chloroquine sensitive strain); assay type: cell-based; conditions: D10, read-out: D10: IC50
heme aggregation = conditions: acetate buffer (pH=4.9)/n-octanol interface; cited from earlier work
[3] = cited from earlier work

Structure (SMILES)	IC50 [1] [nM]	IC50 [2] [nM]	HAIR50 (drug to hemin ratio required to inhibit 50% of heme aggregation) (heme aggregation)	D(pH=4.9) water/n-octanol distribution coefficient ([3]; pH 4.9)	D(pH=6.6) water/n-octanol distribution coefficient ([3]; pH 6.6)
Clc1ccc2c(NCCN(Cc3ccccn3)Cc3ccccn3)ccnc2c1 [L^4, N-(2-(bis((pyridin-2-yl)methyl)amino)ethyl)-7-chloroquinolin-4-amine]	1300 ± 100	1300 ± 100			
CCN(CC)CCCC(C)Nc1ccnc2cc(Cl)ccc12 (stereo not shown) [CQ, chloroquine]	143 ± 14	25 ± 9	2.92	0.15 ± 0.01	6.61 ± 0.64
Cn1ccnc1CNCCNc1ccnc2cc(Cl)ccc12 [L^2, N-(2-((1-methyl-1H-imidazol-2-yl)methylamino)ethyl)-7-chloroquinolin-4-amine]	250 ± 60	190 ± 30			
Clc1ccc2c(NCCNCc3ccccn3)ccnc2c1 [L^1, N-(2-((pyridin-2-yl)methylamino)ethyl)-7-chloroquinolin-4-amine]	220 ± 30	30 ± 2			
Oc1ccccc1CN=CCNc1ccnc2cc(Cl)ccc12 [L^3, N-(2-((2-hydroxyphenyl)methylimino)ethyl)-7-chloroquinolin-4-amine]	> 30000	550 ± 300			
